In the test the test system is 556581-035-R-J1-PDC spheroids with HUVEC/MSC, viability. Put plainly: Anticancer human tumor 556581-035-R-J1-PDC patient-derived ovarian carcinoma cell line growth inhibition [IpAb]. The conditions noted are these: for IC50: curve of first compound; for viability, T/C: stronger effect = lower value. An excerpt:
Combinatorial screen of targeted agents with ipatasertib and abemaciclib in multi-cell type tumor spheroids
A high-throughput screen of multi-cell type tumor spheroids was designed to identify active combinations of targeted small molecules and ipatasertib or abemaciclib. Complex spheroids include a stromal component modeled by human endothelial cells (HUVEC) and fibroblasts modeled by human mesenchymal stem cells (MSCs). The concentration ranges selected for each drug and investigational agent were based upon clinically achievable concentrations if the clinical Cmax of the agent was known.
Compounds. The drugs and investigational agents: ipatasertib (NSC767898), abemaciclib(NSC768073), selumetinib (NSC741078), trametinib (758246), adavosertib (NSC754352), everolimus (NSC733504), sapanisertib (NSC764658), vemurafenib (NSC761431), venetoclax (NSC766270), copanlisib (NSC809693), apelisib (NSC765974), palbociblib (NSC758247), vemurafenib (NSC761431), dabrafenib (NSC764134), ravoxertinib (NSC781343), BMS-387032 (NSC767048), sotorasib (NSC818433), talazoparib (NSC767125) and afursertib (NSC778305), were obtained from the National Cancer Institute (NCI) Developmental Therapeutics Program Chemical Repository. The FDA-approved anticancer drug set is available from the NCI Developmental Therapeutics Program. […] The stock solutions were prepared in dimethyl sulfoxide (DMSO, Sigma-Aldrich, St. Louis, MO, cat. D2650) at 800-fold the tested concentration and stored at -70 degrees C prior to their use. All drugs and investigational agents were tested over a range starting from a high concentration at or near the clinical Cmax and decreasing in half-log increments. If the clinical Cmax for an agent had not been determined, the highest concentration tested was 10 microM.
NCI60 Cell Culture. NCI60 cell lines were obtained from the NCI Developmental Therapeutics Program Tumor Repository. For each lot of cells, the Repository performed Applied Biosystems AmpFLSTR Identifiler testing with PCR amplification to confirm consistency with the published Identifier STR profile for each cell line. Cells were kept in continuous culture for no more than 20 passages. The optimal seeding densities for each of the cell lines at each time point assessed were determined prior to performing the concentration response studies. Briefly, the NCI60 human tumor lines were grown as monolayers in RPMI 1640 medium supplemented with 10% FBS and 2 mmol/L L-glutamine.
An additional 9 lines were from the NCI60 cell line panel including MDA-MB-231 breast carcinoma, MDA-MB-468 breast carcinoma, MCF7 breast carcinoma, Hs578T breast carcinoma, MALME-3M melanoma, SK-MEL-2 melanoma, SK-OV-3 ovarian carcinoma, DU-145 prostate carcinoma, PC-3 prostate carcinoma, all cell lines along with major genetic alterations are listed on Table 2. Pooled donor human umbilical vein endothelial cells (HUVEC, Lonza, cat. CC-2519) and human mesenchymal stem cells (hMSC, Lonza, cat. PT-2501) were purchased from Lonza (Walkersville, MD).
PDMR cell lines were grown in complete medium (DC medium): Dulbecco's modified Eagle's medium (DMEM)/F12 supplemented with 5% fetal bovine serum (FBS), 2 mM L-glutamine, 100 U/mL penicillin and 100 µg/ml streptomycin, 0.4 µg/ml hydrocortisone, 10 ng/ml epidermal growth factor (EGF) recombinant human protein, 24 µg/mL adenine, and 0.1 mg/mL primocin. During culture from frozen stock vials, PDMR cells were cultured in the same medium containing 10 µM Y-27632 (see Table 3). The PDCs were cultured in complete DMEM/F12 media without 10 microM Y-27632 dihydrochloride for at least two passages prior to the screen. The pooled donor HUVEC and hMSC were cultured in endothelial cell growth medium 2 (PromoCell, Heidelberg, Germany, cat. C-22011) and mesenchymal stem cell growth medium 2 (PromoCell, cat. C-28009), respectively. For all experiments, HUVEC and hMSC were used at passages </=5.
[…]

The mark [1] stands for this setting: second compound 0.1 µM, first compound 0.0316 µM.
The mark [2] stands for this setting: second compound 0.1 µM, first compound 0.1 µM.
Where [3] appears, read: second compound 0.316 µM, first compound 0.0316 µM.
[4] abbreviates: second compound 0.316 µM, first compound 0.1 µM.
The mark [5] stands for this setting: second compound 1 µM, first compound 0.0316 µM.
The mark [6] stands for this setting: second compound 1 µM, first compound 0.1 µM.
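Also: spheroids exposed to compounds for 7 days before readout.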

What is called IC50 is the concentration at which inhibition is half-maximal. In general, viability, T/C refers to the ratio of treated to control. Regarding `CC(C)n1nc(-c2ccc3oc(N)nc3c2)c2c(N)ncnc21` + CCN1CCN(Cc2ccc(Nc3ncc(F)c(-c4cc(F)c5nc(C)n(C(C)C)c5c4)n3)nc2)CC1, the IC50 (second compound 0.01 µM) amounted to 4.4 nM; the IC50 (second compound 0.0316 µM) is 7.08 nM; the IC50 (second compound 0.1 µM) came out at 5.03 nM; the IC50 (second compound 0.316 µM) was found to be 6.49 nM; the IC50 (second compound 1 µM) is under 0.316 nM. For the same molecule, the viability, T/C runs as follows: (second compound 0.01 µM, first compound 0.000316 µM) 108%; (second compound 0.01 µM, first compound 0.001 µM) 72.6%; (second compound 0.01 µM, first compound 0.00316 µM) 54.4%; (second compound 0.01 µM, first compound 0.01 µM) 44.2%; (second compound 0.01 µM, first compound 0.0316 µM) 26.4%; (second compound 0.01 µM, first compound 0.1 µM) 22.2%. The viability, T/C was 86.4% (second compound 0.0316 µM, first compound 0.000316 µM); 78.7% (second compound 0.0316 µM, first compound 0.001 µM); 60.7% (second compound 0.0316 µM, first compound 0.00316 µM); 46.8% (second compound 0.0316 µM, first compound 0.01 µM); 27.5% (second compound 0.0316 µM, first compound 0.0316 µM); 19.7% (second compound 0.0316 µM, first compound 0.1 µM). For the same molecule, the viability, T/C is 89.6% (second compound 0.1 µM, first compound 0.000316 µM); 76.1% (second compound 0.1 µM, first compound 0.001 µM); 51.7% (second compound 0.1 µM, first compound 0.00316 µM); 45% (second compound 0.1 µM, first compound 0.01 µM); 26.4% under setting [1]; 20.2% under setting [2]. For the same molecule, the viability, T/C was 80.1% (second compound 0.316 µM, first compound 0.000316 µM); 69.8% (second compound 0.316 µM, first compound 0.001 µM); 61.5% (second compound 0.316 µM, first compound 0.00316 µM); 44.2% (second compound 0.316 µM, first compound 0.01 µM); 28.7% under setting [3]; 21.6% under setting [4]. Besides, the viability, T/C was 41.9% (second compound 1 µM, first compound 0.000316 µM); 52.7% (second compound 1 µM, first compound 0.001 µM); 38.4% (second compound 1 µM, first compound 0.00316 µM); 31.9% (second compound 1 µM, first compound 0.01 µM); 28.4% under setting [5]; 23.1% under setting [6].

Regarding `CCCS(=O)(=O)Nc1ccc(F)c(C(=O)c2c[nH]c3ncc(-c4ccc(Cl)cc4)cc23)c1F` + CC(C)NCC(C(=O)N1CCN(c2ncnc3c2C(C)CC3O)CC1)c1ccc(Cl)cc1, the half-inhibitory concentration (IC50) is, setting by setting: (second compound 0.1 µM) over 10000 nM; (second compound 0.316 µM) over 10000 nM; (second compound 1 µM) over 10000 nM; (second compound 3.16 µM) 4620 nM; (second compound 10 µM) 31.6 nM. The viability, T/C runs as follows: under setting [1], 80.4%; under setting [2], 83%; (second compound 0.1 µM, first compound 0.316 µM) 97.2%; (second compound 0.1 µM, first compound 1 µM) 88.6%; (second compound 0.1 µM, first compound 3.16 µM) 90%; (second compound 0.1 µM, first compound 10 µM) 54.3%. Moreover, the viability, T/C runs as follows: under setting [3], 90%; under setting [4], 73.9%; (second compound 0.316 µM, first compound 0.316 µM) 71.8%; (second compound 0.316 µM, first compound 1 µM) 80.8%; (second compound 0.316 µM, first compound 3.16 µM) 78.2%; (second compound 0.316 µM, first compound 10 µM) 59.9%. For the same molecule, the viability, T/C is 67.1% under setting [5]; 69% under setting [6]; 61.5% (second compound 1 µM, first compound 0.316 µM); 71.3% (second compound 1 µM, first compound 1 µM); 69.1% (second compound 1 µM, first compound 3.16 µM); 40.4% (second compound 1 µM, first compound 10 µM). Further, the viability, T/C by setting is: (second compound 3.16 µM, first compound 0.0316 µM) 49.2%; (second compound 3.16 µM, first compound 0.1 µM) 61.8%; (second compound 3.16 µM, first compound 0.316 µM) 55.5%; (second compound 3.16 µM, first compound 1 µM) 55.8%; (second compound 3.16 µM, first compound 3.16 µM) 54.5%; (second compound 3.16 µM, first compound 10 µM) 40.8%. The viability, T/C is, setting by setting: (second compound 10 µM, first compound 0.0316 µM) 45.1%; (second compound 10 µM, first compound 0.1 µM) 46.7%; (second compound 10 µM, first compound 0.316 µM) 47.2%; (second compound 10 µM, first compound 1 µM) 53.2%; (second compound 10 µM, first compound 3.16 µM) 50.8%; (second compound 10 µM, first compound 10 µM) 16.6%.

For `CCN1CCN(Cc2ccc(Nc3ncc(F)c(-c4cc(F)c5nc(C)n(C(C)C)c5c4)n3)nc2)CC1`, the viability, T/C (compound 1 µM) was 52.7% [middle of 13 runs].

These data come from PubChem BioAssay AID2060338 (Molecular Pharmacology Branch, DTP, NCI, 2025).
